Measurements: US20260083687A1, “COMPOUNDS FOR REDUCING LACTATION AND IMPROVING HEALTH” (AHV International B.V., priority 2022, published 2026)
Values joined by “and” are separate entries in the source; they are usually repeats but may differ in a detail not shown here. Equal entries are not always repeated.

System: cows
Assay: Effect of 40 ml and 80 ml oral DPD capsule vs placebo on the milk yield of cows (Example 1)
Assay type: in vivo, cow
Set-up: average milk drop (Difference: observed minus expected milk yield) / average milk drop (difference): unit not given here
Settings: for Milk production: 40 ml DPD oral capsule on day 13, individual cows
Description: 15 cows from 3 different farms were used in study 1 and 30 cows from 4 different farms were used in study 2. […] The cows are milked twice a day. The cows were housed in free stables. […] The farmers were not informed which cows were treated.
The placebo group existed of 8 cows, whereas the size of the treated group was 7 cows.
For study 2, the gelatin capsule contained 80 ml of the DPD and the gelatine capsule for the placebo group contained tap water. Nine cows were administered a single dose of DPD 7 to 14 days before the start of their dry-off period and nine cows were administered a single dose of the placebo capsule. The cows were placed randomly in the DPD or placebo group. This was done per group that was dried off at the same time for every farm individually, so that every farm had 50% of the cows in the treatment group and 50% in the control group.
On t =13 days the DPD-containing capsules and the placebo capsules were administered.
The following hypothesis was tested and compared by statistical analysis: H0 is defined as there is no difference between the relative milk production before and after treatment between administering of the DPD bolus and placebo, and H1 is defined as there is a difference between the relative milk production before and after treatment between the DPD and placebo group.
The data were processed as follows: based on the data obtained from day 0, 1, 2, 3 . . . 12 the expected milk yields on day 13, 14, […] were calculated by linear regression for each cow. On t=13 the Placebo-capsule or DPD-containing capsule were administered into the rumen. The predicted data (as if no administration of a Placebo or DPD-containing capsule has taken place) and actual milk yields after administration were compared from t=13 days and the milk drop was calculated. This was performed for all the cows in the tests.
Hereafter, the average milk drop was calculated as the difference between the observed and the expected milk yield per day, which is calculated by comparing the expected milk yields that were obtained via linear regression, and the actual milk yields, obtained after treatment with a Placebo or DPD.
The Null Hypothesis is that the difference is zero. We calculate the P-values for these differences using a permutation test (5000 samples).
The Null Hypothesis was defined that that the difference of the 6 treatment cows and Placebo cows is zero. We calculate the P-values for these differences using a permutation test (5000 samples).

In the case of `CCCSSCCC` [DPD, di-n-propyl disulfide], the Milk production (day 1 (before treatment)) is reported as 15.9 and 25.8, the Milk production (day 2 (before treatment)) is reported as 15.3 and 31.7 and 5.9 and the Milk production (day 3 (before treatment)) is reported as 16 and 30.4 and −1.3. The Milk production (day 4 (before treatment)) was 15.6 and 29.9, the Milk production (day 5 (before treatment)) was 15.2 and 27.7 and the Milk production (day 6 (before treatment)) was 14.5 and 28.4 and 23.6 and 24.5. The Milk production (day 7 (before treatment)) was 14.9 and 29.3 and 24 and 24.4, the Milk production (day 8 (before treatment)) was 13.4 and 28.1 and 22.4 and 24.6 and the Milk production (day 9 (before treatment)) was 13.6 and 28.4 and 24.4 and 24.7. For the same compound, the Milk production (day 10 (before treatment)) was 13.8 and 27 and 23.4 and 25.3, the Milk production (day 11 (before treatment)) was 13.7 and 28.8 and 24.2 and 22.5 and the Milk production (day 12 (before treatment)) was 12.9 and 27 and 21.7 and 22.2. The Milk production (day 13 (day of treatment)) was 12.9 and 27.7 and 23.2 and 20.4, the Milk production (day 14) was 12 and 26.4 and 22.2 and 22.3 and the Milk production (day 15) was 11.4 and 23.7 and 23.1 and 20.5. For the same compound, the Milk production (day 16) was 11.4 and 21.5 and 23.7 and 24.4, the Milk production (day 17) was 12.8 and 25.4 and 23.1 and 22 and the Milk production (day 18) was 10.9 and 27.5 and 23.2 and 14.8. For the same compound, the Milk production (day 19) was 11.6 and 25.7 and 22.9 and 9.8, the Milk production (day 20) was 10.2 and 24.8 and 22.3 and 24.3 and the Milk production (day 21) was 9.9 and 23 and 21.3 and 25.8. For the same compound, the “effect on milk yield” value (40 ml DPD vs placebo) was “not in a significant decrease on milk yield”, the “Mean Difference Treatment − Placebo” value (40 ml DPD, day 14) was −0.3233 litres milk per day per cow and the “Significant (effect on milk yield vs placebo)” value (40 ml DPD, day 14) was “No”. The “average milk drop (Difference: observed minus expected milk yield)” value (40 ml DPD, day 14) was −0.226, the “Mean Difference Treatment − Placebo” value (40 ml DPD, day 15) was −0.873 litres milk per day per cow and the “Significant (effect on milk yield vs placebo)” value (40 ml DPD, day 15) was “No”. The “average milk drop (Difference: observed minus expected milk yield)” value (40 ml DPD, day 15) was −0.9122, the “Mean Difference Treatment − Placebo” value (40 ml DPD, day 16) was 1.599 litres milk per day per cow and the “Significant (effect on milk yield vs placebo)” value (40 ml DPD, day 16) was “No”. For the same compound, the “average milk drop (Difference: observed minus expected milk yield)” value (40 ml DPD, day 16) was 1.673, the “Mean Difference Treatment − Placebo” value (40 ml DPD, day 17) was −0.4365 litres milk per day per cow and the “Significant (effect on milk yield vs placebo)” value (40 ml DPD, day 17) was “No”. The “average milk drop (Difference: observed minus expected milk yield)” value (40 ml DPD, day 17) was 1.201, the “Mean Difference Treatment − Placebo” value (40 ml DPD, day 18) was −0.5789 litres milk per day per cow and the “Significant (effect on milk yield vs placebo)” value (40 ml DPD, day 18) was “No”. For the same compound, the “average milk drop (Difference: observed minus expected milk yield)” value (40 ml DPD, day 18) was 0.4719, the “Mean Difference Treatment − Placebo” value (40 ml DPD, day 19) was −0.9982 litres milk per day per cow and the “Significant (effect on milk yield vs placebo)” value (40 ml DPD, day 19) was “No”. The “average milk drop (Difference: observed minus expected milk yield)” value (40 ml DPD, day 19) was −0.2714, the “Mean Difference Treatment − Placebo” value (40 ml DPD, day 20) was −0.296 litres milk per day per cow and the “Significant (effect on milk yield vs placebo)” value (40 ml DPD, day 20) was “No”. The “average milk drop (Difference: observed minus expected milk yield)” value (40 ml DPD, day 20) was 1.657, the “Mean Difference Treatment − Placebo” value (40 ml DPD, day 21) was 0.1722 litres milk per day per cow and the “Significant (effect on milk yield vs placebo)” value (40 ml DPD, day 21) was “No”. The “average milk drop (Difference: observed minus expected milk yield)” value (40 ml DPD, day 21) was 1.713, the “effect on milk yield” value (80 ml DPD vs placebo) was “significant decrease in milk yield” and the “recovery of milk yield production” value (80 ml DPD, after the 3 days following treatment) was “recovers after this period”. The “Mean Difference Treatment − Placebo” value (80 ml DPD, day 13) was 0.2566 litres milk per day per cow, the “Significance (effect on milk yield vs placebo)” value (80 ml DPD, day 13) was “No” and the “average milk drop (difference)” value (80 ml DPD, day 13) was 0.3592. For the same compound, the “Mean Difference Treatment − Placebo” value (80 ml DPD, day 14) was −4.56 litres milk per day per cow, the “Significance (effect on milk yield vs placebo)” value (80 ml DPD, day 14) was “Yes” and the “average milk drop (difference)” value (80 ml DPD, day 14) was −5.726. The “Mean Difference Treatment − Placebo” value (80 ml DPD, day 15) was −6.729 litres milk per day per cow, the “Significance (effect on milk yield vs placebo)” value (80 ml DPD, day 15) was “Yes” and the “average milk drop (difference)” value (80 ml DPD, day 15) was −7.051. The “Mean Difference Treatment − Placebo” value (80 ml DPD, day 16) was −4.421 litres milk per day per cow, the “Significance (effect on milk yield vs placebo)” value (80 ml DPD, day 16) was “Yes” and the “average milk drop (difference)” value (80 ml DPD, day 16) was −3.891. The “Mean Difference Treatment − Placebo” value (80 ml DPD, day 17) was −0.4065 litres milk per day per cow, the “Significance (effect on milk yield vs placebo)” value (80 ml DPD, day 17) was “No” and the “average milk drop (difference)” value (80 ml DPD, day 17) was −1.8508. The “Mean Difference Treatment − Placebo” value (80 ml DPD, day 18) was 0.2326 litres milk per day per cow, the “Significance (effect on milk yield vs placebo)” value (80 ml DPD, day 18) was “No” and the “average milk drop (difference)” value (80 ml DPD, day 18) was −1.4323. For the same compound, the “Mean Difference Treatment − Placebo” value (80 ml DPD, day 19) was 0.9803 litres milk per day per cow, the “Significance (effect on milk yield vs placebo)” value (80 ml DPD, day 19) was “No” and the “average milk drop (difference)” value (80 ml DPD, day 19) was −0.1878. For the same compound, the “Mean Difference Treatment − Placebo” value (80 ml DPD, day 20) was 1.162 litres milk per day per cow, the “Significance (effect on milk yield vs placebo)” value (80 ml DPD, day 20) was “No” and the “average milk drop (difference)” value (80 ml DPD, day 20) was 0.262. The “decrease of milk production compared to the placebo group (average)” value (80 ml DPD, next 3 days after treatment) was 6 litres per day per cow and the decreased milk production (DPD, day 2 after treatment) was 7.7 L/day.
